Activity calls are given as the source filed them.
How the values were obtained:
Procathepsin L = Procathepsin L (Homo sapiens, UniProt P07711)
Aspartyl aminopeptidase = molecular target: T1, Aspartyl aminopeptidase (Plasmodium falciparum 3D7, UniProt Q8I2J3)
T1 sequence (Q8I2J3 whole entry): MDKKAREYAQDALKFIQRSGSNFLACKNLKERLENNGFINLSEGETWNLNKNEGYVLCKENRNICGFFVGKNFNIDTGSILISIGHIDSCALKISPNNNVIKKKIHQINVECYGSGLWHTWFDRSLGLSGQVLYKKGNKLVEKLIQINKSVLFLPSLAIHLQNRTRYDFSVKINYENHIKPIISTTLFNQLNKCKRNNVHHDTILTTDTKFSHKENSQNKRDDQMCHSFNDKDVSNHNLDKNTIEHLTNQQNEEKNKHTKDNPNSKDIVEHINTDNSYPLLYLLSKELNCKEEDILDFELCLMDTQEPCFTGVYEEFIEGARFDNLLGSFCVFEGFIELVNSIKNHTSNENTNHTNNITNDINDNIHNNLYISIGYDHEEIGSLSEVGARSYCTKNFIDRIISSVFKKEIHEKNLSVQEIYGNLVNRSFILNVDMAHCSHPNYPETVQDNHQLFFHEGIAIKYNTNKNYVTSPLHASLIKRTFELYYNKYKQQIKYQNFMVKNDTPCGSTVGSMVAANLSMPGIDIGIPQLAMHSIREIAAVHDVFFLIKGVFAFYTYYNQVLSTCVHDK

H9c2 = assay: cells; assay type: functional, cell-based; settings: Rattus norvegicus, H9c2, Myocardium;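 note: confirmatory concentration-response retest of ultra-high-throughput screening hits for modulation of myocardial damage; cell death induced by hydrogen peroxide oxidative stress; compound pretreatment for 60 min then peroxide exposure for 2 h; potency is for protecting the cells against peroxide damage rather than for killing them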
[1] = molecular target: NAD-dependent protein deacylase sirtuin-5, mitochondrial (Homo sapiens, UniProt Q9NXA8); assay: SIRT5 desuccinylase inhibitors, dose response, biochemical, fluorescence imaging, cherry-pick, set 5 (AID 720591);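 note: desuccinylation of succinyl peptide AMC substrate read as fluorescence after trypsin release; potency of inhibitors that lower fluorescence and may act on trypsin instead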
[2] = molecular target: Peroxisome proliferator-activated receptor gamma/Nuclear receptor corepressor 2 (Homo sapiens, UniProt P37231+Q9Y618); assay type: functional
[3] = system: Streptococcus sp. 'group A'; assay: growth inhibition of control SK(-) GAS strain, dose response, counter-screen for streptokinase expression inhibitor project, luminescence, kanamycin, BacTiterGlo, confirmation (AID 1900); assay type: functional, organism-based
[4] = molecular target: Photoreceptor-specific nuclear receptor (Homo sapiens, UniProt Q9Y5X4); assay type: functional;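 note: potency for compounds that break the NR2E3 corepressor complex and count as activators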
Streptococcus [5] = assay: Group A Streptococcus viability loss, dose response, counter-screen for streptokinase expression inhibitor project, luminescence, BacTiterGlo (AID 1915); assay type: functional, organism-based;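 note: potency for reduction of bacterial viability or growth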
Ion channel NompC [6] = molecular target: T2, Ion channel NompC (Danio rerio, UniProt Q7T1G6); assay: TRPML3 and TRPML2 channel agonists, cell-based, patch clamp, Fura-2 profiling panel, panel member TRPN1 Dose Response (AID 2116)
Ion channel NompC [7] = molecular target: T2, Ion channel NompC; assay: Fluorescence counterscreen assay for TRPML3 agonists: dose response cell-based high-throughput screening assay to identify agonists of the transient receptor potential channel N1 (TRPN1). [Related pubchem assays: 1526, 1424, 1448 ]; assay type: functional
Mucolipin-3 = molecular target: T3, Mucolipin-3 (Homo sapiens, UniProt Q8TDD5); assay: Dose response cell-based high-throughput screening assay for agonists of the transient receptor potential channel ML3 (TRPML3). [Related pubchem assays: 1526, 1424, 1448 ]; assay type: functional
T3 sequence (Q8TDD5 whole entry): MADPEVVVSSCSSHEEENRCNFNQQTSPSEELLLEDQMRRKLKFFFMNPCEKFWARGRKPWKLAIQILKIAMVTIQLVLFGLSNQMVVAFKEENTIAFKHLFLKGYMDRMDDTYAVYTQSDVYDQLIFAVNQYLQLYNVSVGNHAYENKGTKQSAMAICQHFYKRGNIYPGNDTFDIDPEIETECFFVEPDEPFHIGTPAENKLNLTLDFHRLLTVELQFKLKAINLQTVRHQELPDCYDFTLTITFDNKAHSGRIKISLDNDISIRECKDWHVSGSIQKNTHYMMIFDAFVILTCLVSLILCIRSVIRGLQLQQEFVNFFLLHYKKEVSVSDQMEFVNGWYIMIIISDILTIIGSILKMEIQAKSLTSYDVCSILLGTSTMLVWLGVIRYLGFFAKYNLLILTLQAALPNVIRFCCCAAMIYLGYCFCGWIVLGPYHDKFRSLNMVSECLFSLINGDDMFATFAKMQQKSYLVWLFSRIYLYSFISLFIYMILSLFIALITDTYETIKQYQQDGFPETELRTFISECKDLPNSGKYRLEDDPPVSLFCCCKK

Cytochrome P450 2C9 = Cytochrome P450 2C9 (Homo sapiens, UniProt P11712); settings: Potency
Streptokinase A = molecular target: T4, Streptokinase A (Streptococcus pyogenes serotype M1, UniProt P10520); assay: S. pyogenes streptokinase expression inhibitors, potency, dose response, plasminogen activation absorbance, OD405 (AID 1914); assay type: functional, Streptococcus pyogenes M1 GAS;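 note: secreted streptokinase activity via plasminogen activation per viability signal from cell pellet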
T4 sequence (P10520 whole entry): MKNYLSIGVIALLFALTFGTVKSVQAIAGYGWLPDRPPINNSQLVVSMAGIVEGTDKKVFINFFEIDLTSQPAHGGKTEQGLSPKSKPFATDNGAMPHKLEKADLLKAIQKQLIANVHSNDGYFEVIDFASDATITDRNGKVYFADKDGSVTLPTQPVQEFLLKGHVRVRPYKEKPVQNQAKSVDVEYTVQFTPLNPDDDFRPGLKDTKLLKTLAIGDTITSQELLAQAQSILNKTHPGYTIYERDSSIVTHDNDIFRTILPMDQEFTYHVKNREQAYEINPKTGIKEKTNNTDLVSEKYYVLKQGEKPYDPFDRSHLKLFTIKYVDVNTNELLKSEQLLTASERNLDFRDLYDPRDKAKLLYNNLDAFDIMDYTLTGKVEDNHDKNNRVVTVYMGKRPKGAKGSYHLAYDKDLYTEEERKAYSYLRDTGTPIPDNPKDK

Streptococcus [8] = assay: Luminescence Microorganism-Based Dose Response Follow up to Identify Compounds Cytotoxic to Streptococcus. [Related pubchem assays: 1677 (Project Summary), 1915, 1914, 1902 (Retest at Dose), 1900 (Counter Screen), 1662 (Primary HTS)]; assay type: functional, organism-based
[9] = HepG2 cell cytotoxicity, dose response, cytotoxicity control, ATP luminescence, cherry-pick, set 6 (AID 1053125); assay type: functional, cell-based
[10] = molecular target: T5, RNA-binding protein pos-1 (Caenorhabditis elegans, UniProt G5EF15); assay: inhibitors of POS-1/mex-3 RNA binding, dose response, biochemical, fluorescence polarization (AID 1964);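 note: purified POS-1 fused to maltose binding protein made in E. coli; potency of compounds blocking POS-1 binding to fluorescent RNA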
T5 sequence (G5EF15 whole entry): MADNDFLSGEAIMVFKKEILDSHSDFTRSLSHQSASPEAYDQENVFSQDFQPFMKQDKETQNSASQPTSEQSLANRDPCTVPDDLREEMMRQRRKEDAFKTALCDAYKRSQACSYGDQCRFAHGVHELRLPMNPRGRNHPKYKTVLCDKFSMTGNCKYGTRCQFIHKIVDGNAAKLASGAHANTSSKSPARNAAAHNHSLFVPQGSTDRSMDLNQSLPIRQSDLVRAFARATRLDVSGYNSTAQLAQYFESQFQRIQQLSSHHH

[11] = molecular target: Luciferin 4-monooxygenase (Photinus pyralis, UniProt P08659); assay: Counter Screen for Luciferase-based Assay Positives. [Related pubchem assays: 620, 618, 411 ]
cells [12] = settings: A549
[13] = molecular target: T6, Zinc finger protein mex-5 (Caenorhabditis elegans, UniProt Q9XUB2); assay: MEX-5/TCR-2 RNA interaction inhibitors, dose response, biochemical, C. elegans, fluorescence polarization (AID 1960)
T6 sequence (Q9XUB2 whole entry): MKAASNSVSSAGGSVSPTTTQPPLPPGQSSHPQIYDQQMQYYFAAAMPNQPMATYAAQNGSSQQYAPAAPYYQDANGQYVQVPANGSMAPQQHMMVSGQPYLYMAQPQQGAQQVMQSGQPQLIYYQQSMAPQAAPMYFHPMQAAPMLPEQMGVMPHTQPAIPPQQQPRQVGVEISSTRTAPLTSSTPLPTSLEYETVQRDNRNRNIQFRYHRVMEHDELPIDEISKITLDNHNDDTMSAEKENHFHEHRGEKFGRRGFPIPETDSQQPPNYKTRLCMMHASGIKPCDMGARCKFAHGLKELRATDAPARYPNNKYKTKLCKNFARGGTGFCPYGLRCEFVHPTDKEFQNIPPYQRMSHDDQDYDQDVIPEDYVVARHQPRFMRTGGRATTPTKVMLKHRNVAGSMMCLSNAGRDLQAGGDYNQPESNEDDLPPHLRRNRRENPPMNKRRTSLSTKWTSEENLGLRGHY

[14] = Artemis endonuclease inhibitor potency, dose response, biochemical, fluorescence intensity (AID 720701); assay type: functional;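 note: Artemis endonuclease enzyme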
ORF 73 = ORF 73 (Human herpesvirus 8, UniProt O40947); assay: inhibitors of C-LANA binding to LBS DNA, dose response, biochemical, fluorescence polarization, cherry-picked samples (AID 504725); set-up: species or system Human gammaherpesvirus 8;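 note: fluorescence polarization of a labeled DNA duplex reporting LANA DNA binding; potency is for inhibitors that block LANA binding to the DNA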
Salmon testes DNA = assay: DNA intercalators displacing acridine orange, dose response, artefact control for KSHV LANA DNA-binding inhibitor project, biochemical, fluorescence polarization, cherry-picked samples, set 2 (AID 504727); set-up: species or system Salmonidae
HT-1080 = assay: cytotoxicity in HT1080 fibrosarcoma cells, cell-based, fluorescence readout (AID 620); assay type: functional; settings: Homo sapiens
[15] = molecular target: T7, Microphthalmia-associated transcription factor (Homo sapiens, UniProt O75030); assay: TRPM1 promoter luciferase signal decrease, dose response, MITF inhibitor project, cell-based, SK-MEL-5, cherry-picked, set 3 (AID 493073); assay type: functional
T7 sequence (O75030 whole entry): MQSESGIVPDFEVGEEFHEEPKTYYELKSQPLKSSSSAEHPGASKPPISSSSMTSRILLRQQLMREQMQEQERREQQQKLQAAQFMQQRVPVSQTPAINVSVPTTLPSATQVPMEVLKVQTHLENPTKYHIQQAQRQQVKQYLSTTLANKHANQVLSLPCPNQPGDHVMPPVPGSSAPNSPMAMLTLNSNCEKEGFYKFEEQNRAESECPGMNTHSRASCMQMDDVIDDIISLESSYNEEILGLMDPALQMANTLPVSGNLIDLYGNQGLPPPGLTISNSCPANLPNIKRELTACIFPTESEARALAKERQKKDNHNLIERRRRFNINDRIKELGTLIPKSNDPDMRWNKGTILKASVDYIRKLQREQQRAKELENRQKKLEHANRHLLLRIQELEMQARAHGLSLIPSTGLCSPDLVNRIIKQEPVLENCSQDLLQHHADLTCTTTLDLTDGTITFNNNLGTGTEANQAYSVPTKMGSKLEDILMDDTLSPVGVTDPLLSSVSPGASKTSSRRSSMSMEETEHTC

cells [16] = settings: HEK293
HeLa = assay: HeLa cell cytotoxicity, dose response, cytotoxicity control, 24 h, cherry-picked samples (AID 504726); assay type: functional, cell-based; settings: Homo sapiens;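 note: potency for cytotoxicity as loss of luminescence signal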
[17] = molecular target: T8, Neuropeptides B/W receptor type 1 (Homo sapiens, UniProt P48145); assay: GPR7 antagonist potency, late-stage follow-up, cell-based, fluorescence, dose response (AID 463251); assay type: functional
T8 sequence (P48145 whole entry): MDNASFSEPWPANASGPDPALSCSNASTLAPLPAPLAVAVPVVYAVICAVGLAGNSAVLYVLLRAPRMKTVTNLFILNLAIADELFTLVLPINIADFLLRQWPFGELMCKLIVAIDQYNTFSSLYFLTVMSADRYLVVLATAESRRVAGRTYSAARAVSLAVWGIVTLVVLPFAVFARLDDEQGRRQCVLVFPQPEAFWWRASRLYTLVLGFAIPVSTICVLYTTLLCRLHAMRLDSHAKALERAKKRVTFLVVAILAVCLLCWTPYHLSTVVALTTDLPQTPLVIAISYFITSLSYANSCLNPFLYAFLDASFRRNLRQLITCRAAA

[18] = molecular target: Melanin-concentrating hormone receptor 1 (Homo sapiens, UniProt Q99705); assay: Late-stage fluorescence-based counterscreen for antagonists of the G-protein coupled receptor 7 (GPR7): cell-based dose response assay to identify antagonists of the melanin-concentrating hormone receptor 1 (MCHR1). [Related pubchem assays (depositor defined):AID1861, AID1880, AID1952, AID2148, AID2251, AID2257, AID485339]; assay type: functional;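 note: stimulated with 30 nM MCH peptide agonist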
[19] = molecular target: NACHT, LRR and PYD domains-containing protein 3 (Homo sapiens, UniProt Q96P20); assay: NALP3 inhibitors in yeast, dose response, luminescent (AID 488799); assay type: functional
Chain of NACHT, LRR and PYD domains-containing protein 3 (Q96P20 whole entry, the tested form may be a part): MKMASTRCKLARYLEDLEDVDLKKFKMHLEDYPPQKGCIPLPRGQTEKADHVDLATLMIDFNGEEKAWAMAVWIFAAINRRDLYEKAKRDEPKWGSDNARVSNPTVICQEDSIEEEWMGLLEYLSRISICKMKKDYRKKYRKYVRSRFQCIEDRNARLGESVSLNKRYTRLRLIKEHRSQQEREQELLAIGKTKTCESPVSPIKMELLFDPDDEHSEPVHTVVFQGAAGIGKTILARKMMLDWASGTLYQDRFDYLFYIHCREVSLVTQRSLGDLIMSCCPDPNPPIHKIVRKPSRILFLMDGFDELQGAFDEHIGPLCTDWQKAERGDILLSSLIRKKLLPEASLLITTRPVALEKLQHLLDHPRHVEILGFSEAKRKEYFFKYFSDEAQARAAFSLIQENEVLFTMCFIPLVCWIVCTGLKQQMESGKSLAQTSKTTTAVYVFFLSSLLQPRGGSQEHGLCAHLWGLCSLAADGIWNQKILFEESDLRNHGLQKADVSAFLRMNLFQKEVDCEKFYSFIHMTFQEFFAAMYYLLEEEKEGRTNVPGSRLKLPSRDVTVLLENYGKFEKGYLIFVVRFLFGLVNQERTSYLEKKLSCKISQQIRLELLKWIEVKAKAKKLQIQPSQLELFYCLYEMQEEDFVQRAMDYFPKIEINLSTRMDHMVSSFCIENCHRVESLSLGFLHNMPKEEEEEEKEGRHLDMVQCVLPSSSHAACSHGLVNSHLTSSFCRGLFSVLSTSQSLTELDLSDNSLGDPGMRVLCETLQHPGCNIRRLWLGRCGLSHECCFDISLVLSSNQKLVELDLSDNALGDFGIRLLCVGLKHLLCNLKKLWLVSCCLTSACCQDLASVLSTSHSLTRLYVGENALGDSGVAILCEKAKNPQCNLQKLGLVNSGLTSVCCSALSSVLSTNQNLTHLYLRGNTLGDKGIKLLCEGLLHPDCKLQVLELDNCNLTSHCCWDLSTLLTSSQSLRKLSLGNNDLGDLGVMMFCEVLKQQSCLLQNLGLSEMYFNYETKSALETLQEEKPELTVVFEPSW

T2 sequence (Q7T1G6 whole entry): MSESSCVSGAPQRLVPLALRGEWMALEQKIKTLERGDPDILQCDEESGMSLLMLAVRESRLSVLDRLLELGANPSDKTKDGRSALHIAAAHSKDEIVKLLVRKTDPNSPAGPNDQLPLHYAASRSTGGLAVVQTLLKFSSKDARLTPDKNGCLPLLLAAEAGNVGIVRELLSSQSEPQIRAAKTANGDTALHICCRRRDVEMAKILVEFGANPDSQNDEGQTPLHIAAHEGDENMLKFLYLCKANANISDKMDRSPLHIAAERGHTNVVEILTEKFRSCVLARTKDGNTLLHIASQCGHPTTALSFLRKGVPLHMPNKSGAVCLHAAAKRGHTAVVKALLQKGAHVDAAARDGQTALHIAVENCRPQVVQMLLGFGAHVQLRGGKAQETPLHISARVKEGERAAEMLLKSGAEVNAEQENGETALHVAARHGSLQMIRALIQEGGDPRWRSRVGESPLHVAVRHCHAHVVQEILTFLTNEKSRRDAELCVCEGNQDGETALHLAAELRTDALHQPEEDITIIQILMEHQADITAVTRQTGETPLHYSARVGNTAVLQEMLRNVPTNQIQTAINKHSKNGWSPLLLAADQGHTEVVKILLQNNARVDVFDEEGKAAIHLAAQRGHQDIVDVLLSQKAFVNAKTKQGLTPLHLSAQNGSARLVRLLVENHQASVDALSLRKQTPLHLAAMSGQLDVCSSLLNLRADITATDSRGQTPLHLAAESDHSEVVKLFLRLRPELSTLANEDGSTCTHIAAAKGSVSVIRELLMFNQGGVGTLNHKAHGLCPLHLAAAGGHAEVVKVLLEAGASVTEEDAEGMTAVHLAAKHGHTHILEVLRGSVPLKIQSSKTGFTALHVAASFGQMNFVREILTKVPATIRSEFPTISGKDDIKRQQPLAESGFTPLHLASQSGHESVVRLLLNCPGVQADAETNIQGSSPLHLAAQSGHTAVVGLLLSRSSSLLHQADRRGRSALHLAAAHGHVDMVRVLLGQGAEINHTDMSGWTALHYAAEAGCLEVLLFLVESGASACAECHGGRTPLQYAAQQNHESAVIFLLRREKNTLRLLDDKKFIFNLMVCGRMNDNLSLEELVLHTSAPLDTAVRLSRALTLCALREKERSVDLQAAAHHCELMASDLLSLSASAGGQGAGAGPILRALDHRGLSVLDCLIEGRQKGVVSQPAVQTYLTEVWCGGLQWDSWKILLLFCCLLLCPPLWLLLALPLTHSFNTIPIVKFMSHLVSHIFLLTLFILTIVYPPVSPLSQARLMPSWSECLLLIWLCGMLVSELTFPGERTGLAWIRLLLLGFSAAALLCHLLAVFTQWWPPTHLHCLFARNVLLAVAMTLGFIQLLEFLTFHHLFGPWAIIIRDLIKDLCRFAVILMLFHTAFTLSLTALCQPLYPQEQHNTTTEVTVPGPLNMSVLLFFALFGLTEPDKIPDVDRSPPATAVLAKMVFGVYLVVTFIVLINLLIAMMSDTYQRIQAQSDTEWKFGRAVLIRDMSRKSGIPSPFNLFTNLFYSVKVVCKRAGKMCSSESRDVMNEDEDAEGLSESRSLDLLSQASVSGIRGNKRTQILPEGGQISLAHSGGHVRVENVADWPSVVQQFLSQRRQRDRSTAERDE
Chain of Procathepsin L (P07711 whole entry): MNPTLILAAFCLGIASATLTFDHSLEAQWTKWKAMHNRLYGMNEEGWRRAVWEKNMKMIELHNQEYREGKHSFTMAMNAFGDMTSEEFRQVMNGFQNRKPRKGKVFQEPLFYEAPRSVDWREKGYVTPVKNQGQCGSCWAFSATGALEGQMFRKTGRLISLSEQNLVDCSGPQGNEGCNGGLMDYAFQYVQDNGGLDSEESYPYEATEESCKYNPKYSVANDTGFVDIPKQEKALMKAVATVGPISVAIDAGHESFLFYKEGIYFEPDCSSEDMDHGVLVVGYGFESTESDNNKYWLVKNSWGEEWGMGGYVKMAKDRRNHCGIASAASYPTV
Chain of Luciferin 4-monooxygenase (P08659 whole entry): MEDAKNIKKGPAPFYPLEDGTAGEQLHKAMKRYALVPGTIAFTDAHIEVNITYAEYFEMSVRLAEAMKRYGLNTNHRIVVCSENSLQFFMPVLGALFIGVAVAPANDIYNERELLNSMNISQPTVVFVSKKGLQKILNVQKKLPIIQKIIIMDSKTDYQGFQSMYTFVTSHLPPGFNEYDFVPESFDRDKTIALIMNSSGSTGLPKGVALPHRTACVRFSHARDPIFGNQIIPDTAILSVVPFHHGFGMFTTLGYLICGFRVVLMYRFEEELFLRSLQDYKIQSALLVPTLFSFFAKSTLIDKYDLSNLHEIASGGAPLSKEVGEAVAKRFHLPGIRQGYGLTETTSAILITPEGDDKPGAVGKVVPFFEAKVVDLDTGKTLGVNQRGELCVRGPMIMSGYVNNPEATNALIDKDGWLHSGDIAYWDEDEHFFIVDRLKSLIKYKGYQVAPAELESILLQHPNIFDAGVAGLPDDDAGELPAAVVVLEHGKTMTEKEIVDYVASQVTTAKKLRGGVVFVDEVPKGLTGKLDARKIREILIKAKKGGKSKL
Chain of ORF 73 (O40947 whole entry): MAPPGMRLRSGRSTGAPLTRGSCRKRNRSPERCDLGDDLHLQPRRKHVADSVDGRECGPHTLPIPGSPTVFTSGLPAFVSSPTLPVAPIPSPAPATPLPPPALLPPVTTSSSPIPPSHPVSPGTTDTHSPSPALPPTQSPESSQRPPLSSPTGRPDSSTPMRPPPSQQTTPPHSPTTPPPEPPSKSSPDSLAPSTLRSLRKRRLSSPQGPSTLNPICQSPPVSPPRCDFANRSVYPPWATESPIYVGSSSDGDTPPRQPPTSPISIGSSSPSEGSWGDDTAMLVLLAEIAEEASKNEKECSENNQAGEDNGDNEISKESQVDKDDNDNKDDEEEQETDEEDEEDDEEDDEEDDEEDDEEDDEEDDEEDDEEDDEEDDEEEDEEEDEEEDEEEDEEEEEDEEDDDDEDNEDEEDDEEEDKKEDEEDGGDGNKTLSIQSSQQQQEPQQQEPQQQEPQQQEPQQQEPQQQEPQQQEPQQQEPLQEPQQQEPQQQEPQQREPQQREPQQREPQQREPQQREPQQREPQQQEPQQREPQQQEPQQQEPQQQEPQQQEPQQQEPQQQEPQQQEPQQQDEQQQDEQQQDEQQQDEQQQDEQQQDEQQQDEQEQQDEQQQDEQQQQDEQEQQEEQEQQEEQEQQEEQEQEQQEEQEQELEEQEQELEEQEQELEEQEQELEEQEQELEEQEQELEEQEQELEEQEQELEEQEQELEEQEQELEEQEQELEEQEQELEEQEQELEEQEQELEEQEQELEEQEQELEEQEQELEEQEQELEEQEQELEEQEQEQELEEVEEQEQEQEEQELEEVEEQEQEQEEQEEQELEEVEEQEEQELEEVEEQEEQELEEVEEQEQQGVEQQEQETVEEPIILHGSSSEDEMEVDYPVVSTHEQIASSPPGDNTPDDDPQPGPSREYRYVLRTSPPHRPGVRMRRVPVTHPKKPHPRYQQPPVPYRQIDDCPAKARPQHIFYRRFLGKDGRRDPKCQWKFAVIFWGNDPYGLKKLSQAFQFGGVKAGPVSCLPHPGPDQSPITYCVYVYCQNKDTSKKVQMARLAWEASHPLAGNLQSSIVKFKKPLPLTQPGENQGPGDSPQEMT
Chain of Melanin-concentrating hormone receptor 1 (Q99705 whole entry, the tested form may be a part): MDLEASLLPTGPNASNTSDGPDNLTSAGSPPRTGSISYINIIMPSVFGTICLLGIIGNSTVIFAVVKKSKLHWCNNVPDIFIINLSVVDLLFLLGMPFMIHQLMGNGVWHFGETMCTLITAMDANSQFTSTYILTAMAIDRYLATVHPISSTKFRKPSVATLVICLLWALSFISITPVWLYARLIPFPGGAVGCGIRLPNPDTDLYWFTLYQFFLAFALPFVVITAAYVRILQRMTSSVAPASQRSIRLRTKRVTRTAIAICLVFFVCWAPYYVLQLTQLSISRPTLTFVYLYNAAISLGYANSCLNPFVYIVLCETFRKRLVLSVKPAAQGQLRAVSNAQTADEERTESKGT

CCOC(=O)Cc1csc(NC(=O)NC2(C(F)(F)F)Oc3ccccc3O2)n1
IC50 (Procathepsin L): > 59.6 µM (not active) | IC50 (Aspartyl aminopeptidase): 3.02 µM (active) | IC50 (H9c2): 17.5 µM (active)

Cc1cc(N2C(=O)C(O)=C(C(=O)c3cc4ccccc4o3)C2c2ccc(Br)cc2)no1 (stereo unspecified)
AC50 [1]: 17.5 µM (active) | IC50 [2]: 2.92 µM (active) | EC50 [3]: 2.01 µM (active) | IC50 [4]: > 39.8 µM (not active) | EC50 (Streptococcus [5]): 2.78 µM (active)

O=S(=O)(Nc1ccccc1N1CCOCC1)c1ccc(Cl)s1
EC50 (Ion channel NompC [6]): > 29.9 µM (inactive) | EC50 (Ion channel NompC [7]): > 29.9 µM (not active) | EC50 (Mucolipin-3): 1.36 µM (active)

CC(C)C[C@@H](CC(=O)N[C@H](CC(=O)N[C@@H]1CCCC[C@H]1C(=O)N[C@H](CC(=O)N[C@@H](CCC(=O)O)CC(=O)O)CC(C)C)C(C)C)NC(=O)[C@@H]1CCCC[C@H]1N
AC50 (Cytochrome P450 2C9): 39.8 µM (inconclusive)

FC(F)(F)c1cc(-c2ccco2)nc(NCc2ccc(Cl)cc2)n1
EC50 (Streptokinase A): 9.32 µM (active) | EC50 [3]: 8.27 µM (active) | EC50 (Streptococcus [8]): 9.49 µM (active) | EC50 (Streptococcus [5]): > 150 µM (not active)

c1ccc(-c2cn3nc4c(nc3n2)CCCC4)cc1
AC50 [9]: > 52 µM (inactive) | EC50 [10]: 14.3 µM (active) | EC50 [11]: 0.29 µM (active) | AC50 (cells [12]): 15.8 µM (active) | EC50 [13]: 10.6 µM (active) | IC50 [14]: > 20 µM (inactive) | AC50 (ORF 73): 94.3 µM (active) | AC50 (Salmon testes DNA): 169 µM (active) | EC50 (HT-1080): > 50 µM (not active) | AC50 [15]: 5.89 µM (active) | AC50 (cells [16]): 12.7 µM (active) | AC50 (HeLa): 31.1 µM (active)

Cc1ccc(-n2ncc(Cl)c(Oc3ccc(OC(F)(F)F)cc3)c2=O)cc1
IC50 [17]: 0.88 µM (active) | IC50 [18]: 2.9 µM (active)

O=C(NCCCc1ccccc1)c1c(O)nc2sccn2c1=O
IC50 [19]: 9.61 µM (active)
